The structures appear in SMILES notation. Counter-ions that a name gives are not always drawn.

For one experiment, the system named is LMNA KO U2OS cells. Briefly: Global protein translation by HPG incorporation (FACS), LMNA KO. Type of experiment: cell-based, human. Conditions: 24 h treatment, 1 h HPG. As to the method: U2OS cells expressing wild type or KO LMNA were treated with Compound 2 for 24 h and incubated for 1 h with the clickable methionine analogue HPG to measure global protein translation. HPG was then clicked with an Alexa fluor 488 and global fluorescence intensity was quantified by FACS on 10 000 cells.

For experiment [1], the system named is non-laminopathic Werner syndrome cells. Briefly: Misshapen nuclei in Werner syndrome cells. Type of experiment: cell-based, human. The source says: FIG. 10: Remodelin rescues nuclear shape of aged MRC5 cells but not WS cells in a dose dependent manner. A) Misshapen nuclei observed by DAPI staining in MRC5 aged cells in culture, at population doubling 44 (PD44) were rescued by Remodelin. B) Quantification of misshapen nuclei after increasing concentrations of Remodelin (mean of three independent experiments±s.e.m.). C) DAPI staining of non-laminopathic Werner Syndrome cells (WS) showing no nuclear shape improvement upon Remodelin treatment. D) Cell Profiler quantification of misshapen nuclei (mean of three independent experiments±s.d. n>273). Scale bars: 50 μm.
U2OS and SaOS-2 osteosarcoma cells, HeLa cervical cancer cells, A431 melanoma cells, NCI-SNU5 gastric cancer cells, MRC-5 lung fibroblast cells and Werner syndrome patient-derived SV40 fibroblast cells were grown in Dulbecco's modified Eagle medium (DMEM, Sigma-Aldrich) supplemented with 10% fetal bovine serum (BioSera), 2 mM L-glutamine, 100 U per ml penicillin, 100 μg ml^−1 streptomycin. Normal skin primary fibroblasts GM03440 and Hutchinson Gilford Progeria Syndrome (HGPS) skin primary fibroblasts AG11498 and AG06297 were purchased from Coriell Cell Repositories and used between passage number 9-12 and 20-23 respectively. Cells were grown in DMEM supplemented as above. […] Cells were analysed 48 to 72 hours after transfection.

Experiment [2] has as its system HGPS primary fibroblasts (AG11498 and AG06267). Briefly: Misshapen nuclei in HGPS cells. Type of experiment: cell-based, human. To be noted: HGPS patient fibroblasts. As to the method: U2OS and SaOS-2 osteosarcoma cells, HeLa cervical cancer cells, A431 melanoma cells, NCI-SNU5 gastric cancer cells, MRC-5 lung fibroblast cells and Werner syndrome patient-derived SV40 fibroblast cells were grown in Dulbecco's modified Eagle medium (DMEM, Sigma-Aldrich) supplemented with 10% fetal bovine serum (BioSera), 2 mM L-glutamine, 100 U per ml penicillin, 100 μg ml^−1 streptomycin. Normal skin primary fibroblasts GM03440 and Hutchinson Gilford Progeria Syndrome (HGPS) skin primary fibroblasts AG11498 and AG06297 were purchased from Coriell Cell Repositories and used between passage number 9-12 and 20-23 respectively. Cells were grown in DMEM supplemented as above. RPE-1 retinal pigment epithelial cells were grown in DMEM and Ham F12 mix medium supplemented as above and buffered with sodium bicarbonate. HMV-II melanoma cell line, 22RV1 prostate carcinoma cells, NCI-H82 and NCI-H69 lung carcinoma cells, and NCI-N87 gastric cancer cell lines were grown in RPMI-1640 medium (Sigma-Aldrich) supplemented as above. Stably transfected U2OS cells were maintained in standard medium containing 1 mg ml^−1 G418 (Invitrogen). The siRNA duplexes were obtained from Life Sciences: Lamin A/C stealth RNAi: […] (SEQ ID NO: 1) and […] (SEQ ID NO: 2), NAT10 stealth RNAi: […] (SEQ ID NO: 3), and as control siRNA, stealth RNAi negative control duplexes were used. Plasmid DNA and siRNA transfections were carried out using Lipofectamine 2000 and Lipofectamine RNAiMax (Life Sciences) respectively, following the manufacturer's instructions. Cells were analysed 48 to 72 hours after transfection.
(§1) The following KAT and KDAC inhibitors were used in the nuclear shape rescue screen, incubating cells with the molecules for 16 hours: trichostatin A (1 μM), sodium butyrate (5 mM), tubacin (10 μM), SAHA (5 μM), curcumin (10 μM), garcinol (50 μM), anacardic acid (1 μM), MB-3 (5 μM), 4-(4-chlorophenyl)-2-(2-cyclopentylidenehydrazinyl)thiazole (Compound 2) (50 μM), 4-(4-chlorophenyl)-2-(2-cyclopentylidene-1-(prop-2-yn-1-yl)hydrazinyl)thiazole (Compound 3) (50 μM) and cyclopentylidene-[4-(4-cyanophenyl)thiazol-2-yl)hydrazine (Compound 1) (Remodelin) (10 to 50 μM). For HGPS cellular fitness assays, Remodelin was incubated at 1 μM for 1 to 10 days, renewing the medium every 3 days. For long-term senescence assay, cells were kept and passaged in medium containing 1 μM Remodelin or DMSO only for 12 population doublings. Senescence was assessed after 8 days of Remodelin treatment when cells were at Population Doubling 12, and then after several weeks of Remodelin treatment, when cells reached Population Doubling 24 using the Senescence β-Galactosidase Staining Kit #9860 from Cell Signaling. Nocodazole, colchicine and latrunculin A (Sigma-Aldrich) were used at 200 ng/ml, 1 μg/ml and 1 μM respectively. […]

Experiment [3] relates to microtubule network of cells. Briefly: Microtubule network by immunofluorescence of α-Tubulin. Type of experiment: cell-based. Here is the method:
Cells were washed with PBS and fixed for 20 minutes with 2% PFA in PBS. Cells were permeabilised for 5 minutes with PBS/0.2% Triton X-100, and blocked with PBS/0.2% Tween 20 (PBS-T) containing 5% BSA. Coverslips were incubated for 1 hour with primary antibodies and for 30 minutes with appropriate secondary antibodies coupled to Alexa Fluor 488 or 594 fluorophores (Life Technologies), before being incubated with 2 μg/ml DAPI. Pictures were acquired with a FluoView 1000 confocal microscope (Olympus). For high resolution imaging, z-stacks were acquired with a Deltavision PersonalDV (Applied Precision, 1024×1024 CoolSNAP HQ2 camera, z-stack of 0.2 μm interval) or with a Deltavision OMX V3 in conventional mode (Applied Precision, 512×512 Cascade II cameras (Photometrics), z-stack of 0.125 μm interval) both equipped with a 100× UPlanSApo/1.40 oil objective (Olympus) and controlled with SoftWoRx software (Applied Precision). Deconvolutions were then performed with SoftWoRx (Applied Precision) in conservative mode. The different channels were acquired sequentially.

Experiment [4] relates to HGPS cells (γH2AX, autophosphorylated ATM). Put plainly: DNA damage markers in HGPS cells (western blotting, IF). Type of experiment: cell-based, human. Conditions: Remodelin 1 μM. As to the method:
as §1, with “Signaling.” for “Signaling. Nocodazole, colchicine and latrunculin A (Sigma-Aldrich) were used at 200 ng/ml, 1 μg/ml and 1 μM respectively.”
Total cell extracts were prepared by scraping cells in SDS lysis buffer (4% SDS, 20% glycerol, and 120 mM Tris-HCl, pH 6.8), boiling for 5 minutes at 95° C., followed by 10 strokes through a 25-gauge needle. […] Detection and quantification was performed with an imager (Odyssey; LI-COR Biosciences). […]

With `Clc1ccc(-c2csc(NN=C3CCCC3)n2)cc1` [Compound 2, 4-(4-Chlorophenyl)-2-(2-cyclopentylidenehydrazinyl)thiazole Hydrochloride Salt], the “global protein translation (HPG fluorescence intensity)” value in the experiment on LMNA KO U2OS cells was “strong reduction of global protein translation”.

As to `N#Cc1ccc(-c2csc(NN=C3CCCC3)n2)cc1` [Compound 1, 4-(4-Cyanophenyl)-2-(2-cyclopentylidenehydrazinyl)thiazole], in experiment [1], the “misshapen nuclei of Werner syndrome cells” value was “no detectable effect on misshapen nuclei”. In experiment [2], the “misshapen nuclei / nuclear shape of HGPS cells” value is listed as “significantly reduced the number of HGPS cells with misshapen nuclei”. Further, the microtubule network organization result in experiment [3] is reported as “striking reorganization”. Also, in experiment [4], the “steady-state DNA damage markers (γH2AX, autophosphorylated ATM)” value is “decreased steady-state levels of γH2AX and autophosphorylated ATM”.

The record behind these values is patent publication US9809562B2, “NAT10 modulators for treating or preventing laminopathies, aging and cancer” (CAMBRIDGE ENTERPRISE LIMITED, priority 2014, dated 2017).
